Values quoted from earlier work in patent US20250222021A1, “METHOD OF TREATING ACID-BASE DISORDERS” (Renosis, Inc., priority 2017, published 2025).

Tested on: adult patients with CKD and serum bicarbonate 16 to 20 mmol/L
Details: 2 years

Compound: O=C([O-])O.[Na+] [sodium bicarbonate]
- Patients who developed ESRD: 6.5%
- Patients with rapid progression (rapid decline of CrCl >3 ml/min per 1.73 m^2/yr): 9%
- Relative risk of ESRD versus control: 0.13
- Relative risk of rapid progression versus control: 0.15
- Decrease in creatinine clearance (CrCl) (average 1.82 g/day bicarbonate): 1.88 ml/min per 1.73 m^2
